According to US20110294698A1, “PROCESS FOR IDENTIFYING DRUGS FOR TREATING GASTROESOPHAGEAL REFLUX” (Temple University of the Commonwealth System of Higher …, priority 2008, published 2011):
“Also recorded” adds a separate entry of the source. Read-outs that look alike come from different tables or passages of the source.

How the values were obtained:
[1] = test system: gastroesophageal junction high-pressure zone; details: in vivo; cited from earlier work
[2] = test system: gastroesophageal junction high-pressure zone; design: species or system human; details: in vivo, iv
human sling fibers [3] = assay: carbachol induced contraction and relaxation of muscle strips, with potential inhibitors of relaxation; assay type: cell-based; details: for inhibition of carbachol induced relaxation: mecamylamine 10 μM, hexamethonium 100 μM
human LEC fibers [4] = assay: as above; assay type: cell-based; details: for inhibition of carbachol induced relaxation: mecamylamine 10 μM, hexamethonium 100 μM, L-NAME 50 μM
human sling fibers [5] = assay: nicotine or choline induced relaxation of bethanechol pre-contracted muscle strips; assay type: cell-based
human clasp fibers [6] = assay: carbachol induced contraction and relaxation of muscle strips, with potential inhibitors of relaxation; assay type: cell-based; details: for inhibition of carbachol induced relaxation: mecamylamine 10 μM, hexamethonium 100 μM, L-NAME 50 μM
human LEC fibers [7] = assay: nicotine or choline induced relaxation of bethanechol pre-contracted muscle strips; assay type: cell-based
human clasp fibers [8] = assay: as above; assay type: cell-based
pig clasp fibers = assay type: cell-based
M2 receptor = molecular target: T1, M2 receptor (Homo sapiens, UniProt P08172); details: published value; cited from earlier work
T1 sequence (P08172 1-466): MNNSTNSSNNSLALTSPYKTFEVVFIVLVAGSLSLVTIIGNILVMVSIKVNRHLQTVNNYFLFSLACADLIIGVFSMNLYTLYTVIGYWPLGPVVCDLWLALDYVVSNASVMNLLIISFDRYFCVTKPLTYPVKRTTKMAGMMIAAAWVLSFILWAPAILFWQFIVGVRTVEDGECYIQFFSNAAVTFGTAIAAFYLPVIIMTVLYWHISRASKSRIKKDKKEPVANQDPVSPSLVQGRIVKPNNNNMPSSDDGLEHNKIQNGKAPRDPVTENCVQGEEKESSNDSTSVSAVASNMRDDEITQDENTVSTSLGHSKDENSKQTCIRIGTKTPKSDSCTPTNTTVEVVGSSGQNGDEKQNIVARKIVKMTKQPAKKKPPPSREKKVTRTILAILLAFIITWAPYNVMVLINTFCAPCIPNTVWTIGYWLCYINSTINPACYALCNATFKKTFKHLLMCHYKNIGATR

human sling fibers [9] = assay: bethanechol induced contraction of muscle strips, with or without antagonist (Schild analysis); assay type: cell-based
human MEC fibers [10] = assay: as above; assay type: cell-based
M3 receptor = M3 receptor (Homo sapiens, UniProt P20309); details: cited from earlier work
human MEL fibers [11] = assay: bethanechol induced contraction of muscle strips, with or without antagonist (Schild analysis); assay type: cell-based
human LEC fibers [12] = assay: as above; assay type: cell-based
human clasp fibers [13] = assay: as above; assay type: cell-based
human MEL fibers [14] = assay: carbachol cumulative concentration response of muscle strips; assay type: cell-based
From the text: (§1) Beginning at the cardiac notch, the sling fiber complex was separated from the underlying submucosa by sharp dissection and this tissue plane was followed completely around the lesser curvature thus separating the clasp fibers from underlying submucosa. The clasp fiber complex was removed from the sling fiber complex by sharp dissection and cut into 10-12 smooth muscle strips approximately 3×3×8 mm with the long axis parallel to the direction of the muscle fibers. Similar muscle strips were cut from the middle of the sling fiber complex such that these strips were derived from the sling fibers in the cardiac notch. These smooth muscle strips were suspended in 10 ml muscle baths between platinum electrodes in Tyrode's solution continuously bubbled with 95% O2/5% CO2 and maintained at 37° C. The muscle strips were stretched to approximately 150% of their slack length which produced approximately 1 gram of basal tension and were then allowed to accommodate to the muscle bath for at least 60 minutes prior to investigation of contractile response.
(§2) Representative traces of the contractile response to 120 mM KCl in isotonic Tyrode's solution followed by a wash and 60 minute re-equilibration period then a cumulative concentration response curve to the selective muscarinic receptor agonist bethanechol (left) or the muscarinic and nicotinic agonist carbachol (right) is shown in FIG. 11. […]

human MEC fibers [15] = assay: as above; assay type: cell-based
From the text: as §1, §2

[16] = inhibitor 30 min, then carbachol rechallenge, others as in Table 6
[17] = mean ± SEM, read-out: BETH pEC50 (bethanechol potency) (converted)
[18] = cumulative concentration response
[19] = Barrett's esophagitis donors vs no GERD history

M3 receptor, sequence (P20309 whole entry): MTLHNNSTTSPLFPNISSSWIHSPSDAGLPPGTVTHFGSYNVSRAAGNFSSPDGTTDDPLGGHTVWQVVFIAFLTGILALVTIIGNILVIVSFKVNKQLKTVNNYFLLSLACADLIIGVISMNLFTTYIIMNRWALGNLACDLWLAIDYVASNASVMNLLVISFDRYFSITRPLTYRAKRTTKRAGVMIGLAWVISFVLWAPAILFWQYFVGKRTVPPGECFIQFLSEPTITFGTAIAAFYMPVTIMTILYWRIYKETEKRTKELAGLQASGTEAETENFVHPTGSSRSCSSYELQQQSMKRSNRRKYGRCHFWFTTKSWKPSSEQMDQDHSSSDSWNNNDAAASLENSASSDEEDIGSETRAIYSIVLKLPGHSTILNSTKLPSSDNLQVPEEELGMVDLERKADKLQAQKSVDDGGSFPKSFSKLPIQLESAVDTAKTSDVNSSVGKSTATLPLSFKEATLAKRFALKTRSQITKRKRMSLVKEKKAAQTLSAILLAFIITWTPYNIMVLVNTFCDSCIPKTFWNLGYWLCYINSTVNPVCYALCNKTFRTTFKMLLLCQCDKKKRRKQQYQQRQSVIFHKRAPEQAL

## CN1[C@@H]2CC[C@H]1C[C@@H](OC(=O)C(CO)c1ccccc1)C2 (stereo partly drawn) [atropine]
[1]
  effect on the resting sphincteric pressure: dose-dependent partial suppression
[2]
  effect on the pressure profile generated by placement of the plications: abolished

## C[N+](C)(C)CCCCCC[N+](C)(C)C [hexamethonium]
Human sling fibers [3]; […], others as in Table 6
  inhibition of carbachol induced relaxation: did not
Human sling fibers [3]; […], others as in Table 6, listed as HEX
  inhibition of carbachol induced relaxation: inhibit
Human LEC fibers [4]; […]
  inhibition of carbachol induced relaxation: did not

## CNC1(C)C2CCC(C2)C1(C)C (stereo not drawn) [mecamylamine]
Human sling fibers [5]; human sling fibers, 30 μM bethanechol then 1 mM nicotine, MLA 10 nM, MECA 10 μM
  inhibition of nicotine induced relaxation: significantly inhibited
Human sling fibers [3]; [16]
  inhibition of carbachol induced relaxation: inhibited
Human sling fibers [3]; inhibitor 30 min, then carbachol rechallenge, others as in Table 6, listed as MEC
  inhibition of carbachol induced relaxation: inhibit
Human clasp fibers [6]; [16]
  inhibition of carbachol induced relaxation: inhibited; also recorded: blocked; also recorded: only partially effective
Human LEC fibers [4]; inhibitor 30 min, then carbachol rechallenge
  inhibition of carbachol induced relaxation: inhibited
Human LEC fibers [7]; human LEC fibers, 30 μM bethanechol then 1 mM nicotine, MLA 10 nM, MECA 10 μM
  inhibition of nicotine induced relaxation: significantly inhibited
Human clasp fibers [8]; human clasp fibers, 30 μM bethanechol then 1 mM nicotine, MLA 10 nM, MECA 10 μM
  inhibition of nicotine induced relaxation: significantly inhibited

## COC(=O)[C@@H](N)CCCNC(=N)N[N+](=O)[O-] [L-NAME]
Human sling fibers [5]
  inhibition of nicotine induced relaxation: inhibited
Human clasp fibers [6]; […], others as in Table 6
  inhibition of carbachol induced relaxation: inhibited
Human LEC fibers [4]; […]
  inhibition of carbachol induced relaxation: inhibited

## CC(=O)OCC[N+](C)(C)C [acetylcholine]
Pig clasp fibers; acetylcholine with physostigmine to block cholinesterase
  concentration above which abrupt relaxations were produced: higher than 30 uM

## NC1=N[C@H](O)[C@H]2[C@H]3O[C@]4(O)O[C@@H]([C@@H](O)[C@@]2(N1)[C@@H]4O)[C@]3(O)CO [tetrodotoxin]
Human sling fibers [5]
  inhibition of nicotine induced relaxation: reduced the relaxation but not completely

## CC(=O)O[C@H]1C[C@@H]2CC[C@@H]3[C@H](CC[C@@]4(C)[C@H]3C[C@H]([N+]3(C)CCCCC3)[C@@H]4OC(C)=O)[C@@]2(C)C[C@@H]1[N+]1(C)CCCCC1 [pancuronium]
Pig clasp fibers; […], 1E−5 molar
  inhibition of cholinergic agonist induced relaxation: inhibited

## CN1CCCC1c1cccnc1 (stereo not drawn) [nicotine]
Human sling fibers [5]; human sling fibers, 30 μM bethanechol, 100 μM nicotine
  nicotine induced relaxation of bethanechol pre-contracted fibers: relax; also recorded: induces a relaxation
Human LEC fibers [7]; human LEC fibers
  nicotine induced relaxation of bethanechol pre-contracted fibers: relax
Human clasp fibers [8]; human clasp fibers
  nicotine induced relaxation of bethanechol pre-contracted fibers: relax

## CC(C)NCC(O)COc1cccc2ccccc12 (stereo not drawn) [propranolol]
Human sling fibers [5]; human sling fibers, 30 μM bethanechol then 100 μM nicotine, inhibitor 30 min
  inhibition of nicotine induced relaxation: inhibited

## C[N+](C)(C)CCCCCCCCCC[N+](C)(C)C [decamethonium]
Human sling fibers [3]; […], others as in Table 6
  inhibition of carbachol induced relaxation: inhibit
Human clasp fibers [6]; […], others as in Table 6
  inhibition of carbachol induced relaxation: inhibited

## CCN1C[C@]2(COC(=O)c3ccccc3N3C(=O)C[C@H](C)C3=O)CC[C@H](OC)[C@@]34[C@@H]5C[C@H]6[C@H](OC)[C@@H]5[C@](O)(C[C@@H]6OC)[C@@](O)([C@@H](OC)[C@H]23)[C@@H]14 [methyllycaconitine]
Human sling fibers [5]
  inhibition of nicotine induced relaxation: no inhibitory effect
Human clasp fibers [6]; […], others as in Table 6
  inhibition of carbachol induced relaxation: did not
Human clasp fibers [6]; […], others as in Table 6, listed as methyllycaconotine
  inhibition of carbachol induced relaxation: ineffective
Human LEC fibers [7]
  inhibition of nicotine induced relaxation: no inhibitory effect
Human clasp fibers [8]
  inhibition of nicotine induced relaxation: no inhibitory effect

## CC(C[N+](C)(C)C)OC(N)=O (stereo not drawn) [bethanechol]
M2 receptor
  KA (agonist dissociation constant) for M2: 170 µM
Human sling fibers [9]; mean ± SEM
  BETH MAX (maximal tension): 2.18 ± 0.24 (n = 37) c d e
Human sling fibers [9]; [17]
  EC50: 10.5 µM
Human MEC fibers [10]; mean ± SEM
  BETH MAX (maximal tension): 0.79 ± 0.07 (n = 24) e
Human MEC fibers [10]; [17]
  EC50: 45.7 µM
M3 receptor; published value
  KA (agonist dissociation constant) for M3: 110 µM
Human MEL fibers [11]; mean ± SEM
  BETH MAX (maximal tension): 1.37 ± 0.21 (n = 10)
Human MEL fibers [11]; [17]
  EC50: 15.8 µM
Human LEC fibers [12]; mean ± SEM
  BETH MAX (maximal tension): 0.92 ± 0.09 (n = 29)
Human LEC fibers [12]; [17]
  EC50: 6.46 µM
Human clasp fibers [13]; mean ± SEM
  BETH MAX (maximal tension): 1.20 ± 0.17 (n = 14) b d
Human clasp fibers [13]; [17]
  EC50: 1.58 µM

## CCCCCCCCCC[n+]1cccc([C@@H]2CCCN2C)c1.[I-] [NDNI]
Human clasp fibers [6]; […], others as in Table 6
  inhibition of carbachol induced relaxation: blocked

## CC[N+](CC)(CC)CCOc1ccc(/C=C/c2ccccc2)cc1 [MG624]
Human clasp fibers [6]; [16]
  inhibition of carbachol induced relaxation: blocked

## COc1ccccc1CNCCCCCCNCCCCCCCCNCCCCCCNCc1ccccc1OC [methoctramine]
Human sling fibers [9]
  potency (pA2) to inhibit bethanechol induced contraction: 6.8±0.2
Human MEC fibers [10]
  potency (pA2) to inhibit bethanechol induced contraction: 5.7±0.2
M3 receptor; published affinity value
  pKB M3: 6.6
Human MEL fibers [11]
  potency (pA2) to inhibit bethanechol induced contraction: 5.6±0.3
Human LEC fibers [12]
  potency (pA2) to inhibit bethanechol induced contraction: 6.2±0.2
Human clasp fibers [13]
  potency (pA2) to inhibit bethanechol induced contraction: 6.3±0.2

## C[N+](C)(C)CCOC(N)=O [carbachol]
Human sling fibers [3]
  carbachol induced relaxation, GERD compared to non-GERD controls: no difference
Human sling fibers [3]; carbachol higher than 100 μM
  carbachol induced relaxations, definite GERD: greater
Human sling fibers [3]; [18]
  carbachol concentration at which relaxation response is observed: ≥ 300 µM
Human sling fibers [3]; mean±sem
  relaxation response to high carbachol concentration as a percentage of the maximal contractile response: 29±4%
Human sling fibers [3]; p<0.05
  maximal carbachol induced contraction, donors with GERD compared to donors without GERD: greater
Human sling fibers [3]; vs no GERD history
  contractility to carbachol, definite and probable GERD: increased
Human clasp fibers [6]; [19]
  maximal contractile response to carbachol, definite GERD: decreased
Human clasp fibers [6]; carbachol higher than 100 μM
  carbachol induced relaxations, probable and definite GERD: decreased
Human clasp fibers [6]; increasing carbachol concentrations (Example 9)
  concentration above which abrupt relaxations were produced: higher than 30 uM
Human clasp fibers [6]; mean±sem
  relaxation response to high carbachol concentration as a percentage of the maximal contractile response: 131±6%
Human clasp fibers [6]; p<0.05
  carbachol-induced relaxations with high concentrations of carbachol, donors with GERD compared to non-GERD controls: significantly lower
  maximal carbachol induced contraction, donors with GERD compared to non-GERD donors: significantly lower
Human LEC fibers [4]; [19]
  maximal contractile response to carbachol, definite GERD: decreased
Human LEC fibers [4]; carbachol higher than 100 μM
  carbachol induced relaxations, probable and definite GERD: higher
Human LEC fibers [4]; [18]
  carbachol concentration at which relaxation response is observed: ≥ 300 µM
Human LEC fibers [4]; mean±sem
  relaxation response to high carbachol concentration as a percentage of the maximal contractile response: 54±9%
Human MEL fibers [14]
  abrupt relaxation response to high carbachol concentrations: not observed
Human MEC fibers [15]
  abrupt relaxation response to high carbachol concentrations: not observed

## COc1cc2c3cc1Oc1cc(ccc1O)C[C@@H]1c4c(cc(OC)c(O)c4Oc4ccc(cc4)C[C@@H]3N(C)CC2)CC[N+]1(C)C [tubocurarine]
Human sling fibers [3]; […], others as in Table 6
  inhibition of carbachol induced relaxation: inhibit
Human clasp fibers [6]; […], others as in Table 6
  inhibition of carbachol induced relaxation: inhibited
